Experimental data from the NIST ThermoML archive (doi:10.1016/j.jct.2014.09.011).

Experiment: mn = molality of the nth substance listed, in mol/kg
Conditions: 101.3 kPa, Liquid; for speed of sound: Frequency=2 MHz, Linear variable-path acoustic interferometer; for mass density: Pycnometric method

O=C(O)[C@]1(O)C[C@@H](O)[C@@H](O)[C@H](O)C1 + O
Conditions	mass density [kg/m3]	speed of sound [m/s]
278.15 K, m1 = 0.01	1000.73	1427.1
278.15 K, m1 = 0.0198	1001.5	1428.1
278.15 K, m1 = 0.0299	1002.27	1429.2
278.15 K, m1 = 0.0374	1002.84	1429.9
278.15 K, m1 = 0.0405	1003.09	1430.2
278.15 K, m1 = 0.0441	1003.35	1430.6
278.15 K, m1 = 0.0492	1003.74	1431
278.15 K, m1 = 0.0601	1004.55	1432.1
278.15 K, m1 = 0.0634	1004.82	1432.4
278.15 K, m1 = 0.072	1005.45	1433.3
278.15 K, m1 = 0.0815	1006.18	1434.3
278.15 K, m1 = 0.0892	1006.75	1435
278.15 K, m1 = 0.1001	1007.56	1436.1
288.15 K, m1 = 0.0096	999.82	1466.7
288.15 K, m1 = 0.0238	1000.89	1467.9
288.15 K, m1 = 0.0297	1001.32	1468.4
288.15 K, m1 = 0.0362	1001.8	1468.9
288.15 K, m1 = 0.0403	1002.1	1469.3
288.15 K, m1 = 0.0447	1002.43	1469.6
288.15 K, m1 = 0.0489	1002.74	1470
288.15 K, m1 = 0.0542	1003.11	1470.4
288.15 K, m1 = 0.061	1003.63	1471
288.15 K, m1 = 0.0683	1004.16	1471.6
288.15 K, m1 = 0.0795	1004.98	1472.5
288.15 K, m1 = 0.0869	1005.52	1473.1
288.15 K, m1 = 0.0992	1006.4	1474.2
298.15 K, m1 = 0.0096	997.74	1497.4
298.15 K, m1 = 0.0199	998.49	1498.3
298.15 K, m1 = 0.0254	998.89	1498.7
298.15 K, m1 = 0.0304	999.25	1499.1
298.15 K, m1 = 0.0385	999.83	1499.7
298.15 K, m1 = 0.0415	1000.05	1500
298.15 K, m1 = 0.0493	1000.6	1500.6
298.15 K, m1 = 0.0542	1000.95	1501
298.15 K, m1 = 0.061	1001.46	1501.5
298.15 K, m1 = 0.0716	1002.18	1502.4
298.15 K, m1 = 0.0786	1002.68	1502.9
298.15 K, m1 = 0.0869	1003.27	1503.6
298.15 K, m1 = 0.1007	1004.22	1504.7

C=C[C@H]1CN2CC[C@H]1C[C@H]2[C@H](O)c1ccnc2ccc(OC)cc12.Cl [quinine hydrochloride] + O
Conditions	mass density [kg/m3]	speed of sound [m/s]
278.15 K, m1 = 0.0127	1001.09	1429.3
278.15 K, m1 = 0.0177	1001.51	1430.5
278.15 K, m1 = 0.0225	1001.92	1431.7
278.15 K, m1 = 0.0287	1002.46	1433.3
278.15 K, m1 = 0.0332	1002.86	1434.4
278.15 K, m1 = 0.0402	1003.44	1436.2
278.15 K, m1 = 0.048	1004.11	1438.1
278.15 K, m1 = 0.0603	1005.15	1441.1
278.15 K, m1 = 0.0653	1005.57	1442.4
278.15 K, m1 = 0.0698	1005.93	1443.5
278.15 K, m1 = 0.0798	1006.76	1446
278.15 K, m1 = 0.09	1007.59	1448.5
278.15 K, m1 = 0.0987	1008.29	1450.7
288.15 K, m1 = 0.0106	1000.01	1468.3
288.15 K, m1 = 0.0163	1000.5	1469.6
288.15 K, m1 = 0.022	1000.99	1470.9
288.15 K, m1 = 0.0294	1001.64	1472.5
288.15 K, m1 = 0.0361	1002.19	1474
288.15 K, m1 = 0.0396	1002.48	1474.8
288.15 K, m1 = 0.0491	1003.28	1477
288.15 K, m1 = 0.0552	1003.79	1478.3
288.15 K, m1 = 0.0598	1004.17	1479.3
288.15 K, m1 = 0.0687	1004.9	1481.4
288.15 K, m1 = 0.0785	1005.7	1483.6
288.15 K, m1 = 0.0881	1006.49	1485.7
288.15 K, m1 = 0.1019	1007.59	1488.8
298.15 K, m1 = 0.0109	997.96	1499.2
298.15 K, m1 = 0.0125	998.1	1499.4
298.15 K, m1 = 0.0199	998.7	1501.1
298.15 K, m1 = 0.0248	999.09	1502.2
298.15 K, m1 = 0.0286	999.45	1502.9
298.15 K, m1 = 0.0378	1000.17	1504.9
298.15 K, m1 = 0.0473	1000.94	1506.9
298.15 K, m1 = 0.0544	1001.52	1508.5
298.15 K, m1 = 0.0594	1001.93	1509.4
298.15 K, m1 = 0.0677	1002.6	1511.4
298.15 K, m1 = 0.0785	1003.46	1513.7
298.15 K, m1 = 0.0881	1004.22	1515.8
298.15 K, m1 = 0.0987	1005.05	1518.1

O [water] + C=C[C@H]1CN2CC[C@H]1C[C@H]2[C@H](O)c1ccnc2ccc(OC)cc12.Cl
278.15 K, m2 = 0
Conditions	mass density [kg/m3]	speed of sound [m/s]
–	999.96	1426.2

O [water] + O=C(O)[C@]1(O)C[C@@H](O)[C@@H](O)[C@H](O)C1
278.15 K, m2 = 0
Conditions	mass density [kg/m3]	speed of sound [m/s]
–	999.96	1426.2

O [water] + Cl.N=C(N)N
278.15 K, m2 = 0
Conditions	mass density [kg/m3]	speed of sound [m/s]
–	999.96	1426.2

Cl.N=C(N)N [guanidine hydrochloride] + O
Conditions	mass density [kg/m3]	speed of sound [m/s]
278.15 K, m1 = 0.0101	1000.29	1427
278.15 K, m1 = 0.0162	1000.5	1427.5
278.15 K, m1 = 0.0196	1000.61	1427.8
278.15 K, m1 = 0.0227	1000.7	1428
278.15 K, m1 = 0.0291	1000.91	1428.5
278.15 K, m1 = 0.039	1001.25	1429.3
278.15 K, m1 = 0.0501	1001.58	1430.3
278.15 K, m1 = 0.0586	1001.85	1431
278.15 K, m1 = 0.0619	1001.96	1431.2
278.15 K, m1 = 0.0685	1002.17	1431.8
278.15 K, m1 = 0.0807	1002.54	1432.8
278.15 K, m1 = 0.0882	1002.78	1433.4
278.15 K, m1 = 0.0981	1003.08	1434.2
288.15 K, m1 = 0.0102	999.41	1466.6
288.15 K, m1 = 0.0201	999.7	1467.3
288.15 K, m1 = 0.0267	999.9	1467.8
288.15 K, m1 = 0.0297	999.98	1468
288.15 K, m1 = 0.0387	1000.25	1468.6
288.15 K, m1 = 0.0437	1000.41	1469
288.15 K, m1 = 0.0502	1000.59	1469.4
288.15 K, m1 = 0.0598	1000.86	1470.1
288.15 K, m1 = 0.0634	1000.97	1470.4
288.15 K, m1 = 0.0697	1001.15	1470.8
288.15 K, m1 = 0.0798	1001.43	1471.5
288.15 K, m1 = 0.0926	1001.79	1472.4
288.15 K, m1 = 0.1009	1002.03	1473
298.15 K, m1 = 0.0101	997.34	1497.4
298.15 K, m1 = 0.0162	997.52	1497.8
298.15 K, m1 = 0.0196	997.61	1497.9
298.15 K, m1 = 0.0267	997.81	1498.4
298.15 K, m1 = 0.0299	997.9	1498.6
298.15 K, m1 = 0.0349	998.05	1498.9
298.15 K, m1 = 0.0401	998.17	1499.2
298.15 K, m1 = 0.0515	998.5	1499.9
298.15 K, m1 = 0.0586	998.7	1500.4
298.15 K, m1 = 0.0705	999.01	1501.2
298.15 K, m1 = 0.0807	999.29	1501.8
298.15 K, m1 = 0.0926	999.61	1502.5
298.15 K, m1 = 0.1009	999.84	1503
